For one experiment, the system named is Acinetobacter. Put plainly: microbe, parasite or virus in culture. Particulars: Acinetobacter, read-out: MIC Acinetobacter. It is filed as cell-based.
For another experiment, the system named is B. anthracis. In words: microbe, parasite or virus in culture. Particulars: Bacillus anthracis, read-out: MIC B. anthracis. Format: cell-based, Bacillus anthracis.
The subject of another experiment is S. pneumonia. In words: MIC against S. pneumonia. To be noted: Table 1. It is filed as cell-based. The method, then:
(§1) The following compounds have been synthesized and tested for their activities against bacteria (Table 1) and their abilities to inhibit Dxr (Table 2). MIC is determined as described in Yendapally et al. (Journal of Medicinal Chemistry 2008, 51, 1487); and IC50 is determined as described in Henriksson et al. (Journal of Biological Chemistry 2007, 282, 19905).

In the next experiment the test system is E. faecalis. Put plainly: microbe, parasite or virus in culture. It is filed as cell-based. To be noted: Enterococcus faecalis, read-out: MIC E. faecalis.
A further experiment concerns S. aureus (MSSA). In words: microbe, parasite or virus in culture. Format: cell-based. To be noted: Staphylococcus aureus, MSSA, read-out: MIC S. aureus (MSSA).
The test system of a further experiment is E. coli tolc. In words: microbe, parasite or virus in culture. It is filed as cell-based. To be noted: Escherichia coli, read-out: MIC E. coli tolc.
In the next experiment the test system is MRSA NRS 70. Put plainly: microbe, parasite or virus in culture. Format: cell-based, S. aureus. Particulars: Staphylococcus aureus, read-out: MIC MRSA NRS 70.
Another experiment deals with Mtb H37Rv (ATCC 27294). Put plainly: microbe, parasite or virus in culture. Particulars: Mycobacterium tuberculosis. It is filed as cell-based, Mycobacterium tuberculosis.
A further experiment deals with E. coli k12. In words: microbe, parasite or virus in culture. It is filed as cell-based. To be noted: Escherichia coli, K12, read-out: MIC E. coli k12.
For a further experiment, the system named is Klebsiella. Put plainly: MIC against Klebsiella. Format: cell-based. To be noted: Table 1. On the procedure:
as §1

The subject of the next experiment is P. aeruginosa. In words: MIC against P. aeruginosa. Format: cell-based. To be noted: Pseudomonas aeruginosa; Table 1. The method, then:
as §1

In brackets after ≈: the same amount, converted by molar mass. Like-named read-outs stand apart in the source and are kept apart here.

For the molecule `CCOP(=O)(CCCN(OCCCc1ccccc1)C(C)=O)OCC` [GSJ 27], the MIC in the experiment with Acinetobacter, in the experiment with B. anthracis, in the experiment on S. pneumonia, in the experiment on E. faecalis, with S. aureus (MSSA) and in the experiment on E. coli tolc was greater than 200 µg/mL each time. Besides, the MIC in the experiment on MRSA NRS 70, with Mtb H37Rv (ATCC 27294) (read-out: MIC H37 Rv), in the experiment on Mtb H37Rv (ATCC 27294) (read-out: Mtb MIC (ug/mL)), in the experiment on E. coli k12, against Klebsiella and against P. aeruginosa was greater than 200 µg/mL throughout.

Regarding `CCOP(=O)(CCCN(OC(C)c1ccccc1)C(C)=O)OCC` (stereo not drawn) [GSJ 28], the MIC in the experiment with Acinetobacter was greater than 200 µg/mL; with B. anthracis, greater than 200 µg/mL; in the experiment with S. pneumonia, greater than 200 µg/mL; in the experiment on E. faecalis, greater than 200 µg/mL; in the experiment on S. aureus (MSSA) it was 100 µg/mL (≈ 280 µM); in the experiment on E. coli tolc, greater than 200 µg/mL. Besides, the MIC in the experiment with MRSA NRS 70 was 50 µg/mL (≈ 140 µM); with Mtb H37Rv (ATCC 27294) (read-out: MIC H37 Rv), greater than 200 µg/mL; with Mtb H37Rv (ATCC 27294) (read-out: Mtb MIC (ug/mL)) it was greater than 200 µg/mL; in the experiment on E. coli k12 it was greater than 200 µg/mL; in the experiment on Klebsiella it was greater than 200 µg/mL; against P. aeruginosa, greater than 200 µg/mL.

For the molecule `CCOP(=O)(CCCN(OCCCc1ccc(OC)cc1)C(C)=O)OCC` [GSJ 30], the MIC in the experiment with Acinetobacter, with B. anthracis, in the experiment on S. pneumonia, with E. faecalis, with S. aureus (MSSA) and in the experiment on E. coli tolc was greater than 200 µg/mL each time. Moreover, the MIC with MRSA NRS 70, in the experiment with Mtb H37Rv (ATCC 27294) (read-out: MIC H37 Rv), in the experiment on Mtb H37Rv (ATCC 27294) (read-out: Mtb MIC (ug/mL)), in the experiment with E. coli k12, in the experiment on Klebsiella and with P. aeruginosa was greater than 200 µg/mL throughout.

Consider `CCOP(=O)(CCCN(OCCc1ccc(OC)cc1)C(C)=O)OCC` [GSJ 31], for which the MIC with Acinetobacter was greater than 200 µg/mL; with B. anthracis, greater than 200 µg/mL; in the experiment on S. pneumonia it was greater than 200 µg/mL; in the experiment with E. faecalis it was greater than 200 µg/mL; in the experiment with S. aureus (MSSA) it was 200 µg/mL (≈ 516 µM); with E. coli tolc, greater than 200 µg/mL. Further, the MIC was 50 µg/mL (≈ 129 µM) with MRSA NRS 70; greater than 200 µg/mL in the experiment on Mtb H37Rv (ATCC 27294) (read-out: MIC H37 Rv); greater than 200 µg/mL in the experiment with Mtb H37Rv (ATCC 27294) (read-out: Mtb MIC (ug/mL)); greater than 200 µg/mL in the experiment on E. coli k12; greater than 200 µg/mL in the experiment on Klebsiella; greater than 200 µg/mL against P. aeruginosa.

The values above are taken from US9593136B2 (priority 2011, dated 2017).
